From patent US8048888B2, “Anti-proliferative combination therapy using certain platinum-based chemotherapeutic agents and EGFR inhibitors or pyrimidine analogues” (Agennix AG, priority 2005, dated 2011)
Where two headings read alike, the source gives them in different places.

How the values were obtained:
[1] = system: MX-1 tumor (human breast carcinoma); conditions: for Median tumor volume / T/C %: capecitabine 750 mg/kg/adm PO Q1Dx8
Protocol: Healthy female SWISS nu/nu mice, 6-7 weeks old, 17-22 g, were obtained from Charles River (L'Arbresle, France). Animals were acclimated for seven days in a specific-pathogen-free (SPF) animal care unit before treatment. MX-1 tumor implants were purchased and provided by Oncodesign (Dijon, France). MX-1 is a human breast carcinoma cell line.
To induce MX-1 tumors in nude mice ten female SWISS nude mice were subcutaneously implanted with thawed fragments of MX-1 tumor 24 hours after whole body irradiation with a γ-source (Co^60, INRA, Dijon, France). Mice were continuously monitored and terminated when tumors reached 700 to 1000 mm^3. Tumors were then surgically excised and homogenous fresh fragments were subcutaneously implanted in the right flanks of 130 SWISS nude mice.
Ninety (90) mice were randomized into 9 groups of 10 mice each.
Suspensions were continuously agitated during administration to mice.
The treatment schedule was as follows (all dosage indicated are dosages per administration): • Mice from group 1 received one daily PO (oral) administration of satraplatin vehicle (arachis oil, see above) for 5 consecutive days from D21 (day 21) to D25 (referred to as Q1D×5) in combination with one daily PO administration of capecitabine vehicle (Citrate buffer containing Arabic gum, see above) for 8 consecutive days from D21 to D28 (Q1D×8), • Mice from group 2 received one daily PO administration of capecitabine at 750 mg/kg (milligram per kilogram of body weight) for 8 consecutive days from D21 to D28 (Q1D×8), • Mice from group 3 received one daily PO administration of satraplatin at 5 mg/kg for 5 consecutive days from D21 to D25 (Q1D×5), • Mice from group 4 received one daily PO administration of satraplatin at 15 mg/kg for 5 consecutive days from D21 to D25 (Q1 D×5), • Mice from group 5 received one daily PO administration of satraplatin at 25 mg/kg for 5 consecutive days from D21 to D25 (Q1D×5), • Mice from group 6 received one daily PO administration of satraplatin at 45 mg/kg for 5 consecutive days from D21 to D25 (Q1D×5), • Mice from group 7 received one daily PO administration of satraplatin at 5 mg/kg for 5 consecutive days from D21 to 025 (Q1D×5) in combination with one daily PO administration of capecitabine at 750 mg/kg for 8 consecutive days from D21 to D28 (Q1D×8), • Mice from group 8 received one daily PO administration of satraplatin at 15 mg/kg for 5 consecutive days from D21 to D25 (Q1D×5) in combination with one daily PO administration of capecitabine at 750 mg/kg for 8 consecutive days from D21 to D28 (Q1D×8), • Mice from group 9 received one daily PO administration of satraplatin at 25 mg/kg for 5 consecutive days from D21 to D25 (Q1D×5) in combination with one daily PO administration of capecitabine at 750 mg/kg for 8 consecutive days from D21 to D28 (Q1D×8). Satraplatin was administered 30 minutes after capecitabine. Satraplatin and capecitabine were administered at a dose volume of 10 ml/kg body weight.
During the course of the experiment, viability and behaviour of mice were recorded every day. Mice body weight and tumor volume was recorded twice a week. Mice were terminated when tumor weight was equivalent to 10% of body weight or when a body weight loss of 20% was observed.
Tumor growth inhibition (T/C %) is defined as the ratio of the median tumor volume of a given treated group (test or reference substance) versus the equivalent median volume from the control group. T/C % is calculated as follows: […]
The optimal value is the minimal T/C % ratio that reflects the maximal tumor growth inhibition achieved.
Tumor Log cell kill was calculated using the following formula:
[formula] wherein DT is the doubling time of the tumor.

MCF7 cell line = test: SRB assay, simultaneous JM118 and 5FU, 48 hours; type: cell-based; conditions: Homo sapiens, read-out: Growth inhibition
Protocol: For this experiment the human colorectal carcinoma cell line HCT 116 (ATCC order number: CCL-247; Cancer Res (1981) 41, 1751; J Natl Cancer Inst (1982) 69, 767) and the human adenocarcinoma cell line MCF7 (ATCC order number: HTB-22; Cancer Res (1983) 43, 2831; Science (1985) 230, 943) were used.
5FU was dissolved in 0.1% DMSO at a concentration of 20 mM.
Cells were incubated with both compounds simultaneously.

UM-UC-3 cell line [2] = test: SRB assay, sequential: JM-118 48 hours, followed by gemcitabine 48 hours; type: cell-based; conditions: Homo sapiens, UMUC3, JM118 first, read-out: Growth inhibition
Protocol: (§1) Gemcitabine was dissolved in saline at a concentration of 10 mM. Cells were seeded at 1,500 cells per well.
Cells were incubated with both compounds sequentially, wherein cells were incubated with JM118 first.

UM-UC-3 cell line [3] = test: SRB assay, sequential: gemcitabine 48 hours, followed by JM118 48 hours; type: cell-based; conditions: Homo sapiens, UMUC3, Gemcitabine first, read-out: Growth inhibition
Protocol: as §1
Cells were incubated with both compounds sequentially, wherein cells were incubated with gemcitabine first.

A129 = test: SRB cytotoxicity assay, 48 hours, parental cell line A129; type: cell-based; conditions: A129, 48 hours
Protocol: (§2) The parental non-mutated cell line A129 was used as control.
(§3) Briefly, cells were plated in 96 well dishes 24 hours prior to compound addition. The assay was terminated with the addition of cold TCA to a final concentration of 10% and the plates were incubated for one hour at 4° C. The plates were then washed 5 times with water and 100 μl of a Sulforhodamine B solution ([…]) was added to each well. The plate was then incubated for 10 minutes at room temperature before removal of unbound dye by washing with 1% acetic acid. The bound dye was solubilized with 10 mM Trizma base and the absorbance read at OD570.
(§4) Numbers in brackets indicate how often experiments were performed. In each single experiment a minimum of three replica wells was used for each drug concentration and cell line. Shown are mean values and standard deviations of the IC50s, as determined in the individual experiments. RR denominates the relative resistance, i.e. the relative level of resistance conferred to the indicated drugs.

A129 cp80 cell line = test: SRB cytotoxicity assay, 48 hours, cisplatin-resistant A129 cp80; type: cell-based
Protocol: as §2, §3, §4

Question: Which toxicity in mice ([1]; satraplatin 45 mg/kg) does the source give for CC(=O)[O][Pt]([NH2])([Cl])([Cl])([NH]C1CCCCC1)[O]C(C)=O [Satraplatin] here?
Answer: toxic effects

Question: How did the inhibition at 0.3125 µM (MCF7 cell line; JM118 0 + 5FU 0.3125 μM) turn out when O=c1[nH]cc(F)c(=O)[nH]1 [5FU, 5-fluorouracil] was run?
Answer: 1.1%

Question: What about the inhibition at 0.625 µM (MCF7 cell line; JM118 0 + 5FU 0.625 μM) of the same molecule?
Answer: 2.9%

Question: What about the inhibition at 1.25 µM (MCF7 cell line; JM118 0 + 5FU 1.25 μM) of the same molecule?
Answer: 7.2%

Question: What about the inhibition at 2.5 µM (MCF7 cell line; JM118 0 + 5FU 2.5 μM) of the same molecule?
Answer: 17.3%

Question: What about the inhibition at 5 µM (MCF7 cell line; JM118 0 + 5FU 5 μM) of the same molecule?
Answer: 37.4%

Question: What about the inhibition at 10 µM (MCF7 cell line; JM118 0 + 5FU 10 μM) of the same molecule?
Answer: 67.7%

Question: Which results are given for CCCCCOC(=O)Nc1nc(=O)n([C@@H]2O[C@H](C)[C@@H](O)[C@H]2O)cc1F [Capecitabine]?
Answer: tumor log cell kill ([1]; capecitabine 750 mg/kg alone): 0.2; Median tumor volume ([1]; D21): 98.8 mm^3; T/C % ([1]; D21): 124%; Median tumor volume ([1]; D26): 217.5 mm^3; T/C % ([1]; D26): 114%; Median tumor volume ([1]; D29): 322.1 mm^3; T/C % ([1]; D29): 81%; Median tumor volume ([1]; D33): 498.2 mm^3; T/C % ([1]; D33): 65%; Median tumor volume ([1]; D36): 711.0 mm^3; T/C % ([1]; D36): 62%; Median tumor volume ([1]; D40): 1046.3 mm^3; T/C % ([1]; D40): 66%; Median tumor volume ([1]; D43): 1598.0 mm^3; T/C % ([1]; D43): 68%

Question: Which results are given for Nc1ccn([C@@H]2O[C@H](CO)[C@@H](O)C2(F)F)c(=O)n1 [Gemcitabine, 2′,2′-difluorodeoxycytidine]?
Answer: inhibition at 0.002 µM (UM-UC-3 cell line [2]; JM118 0 + Gemcitabine 0.0020 μM): 2.6%; inhibition at 0.0039 µM (UM-UC-3 cell line [2]; JM118 0 + Gemcitabine 0.0039 μM): 8.7%; inhibition at 0.0078 µM (UM-UC-3 cell line [2]; JM118 0 + Gemcitabine 0.0078 μM): 23.4%; inhibition at 0.0156 µM (UM-UC-3 cell line [2]; JM118 0 + Gemcitabine 0.0156 μM): 43.9%; inhibition at 0.0313 µM (UM-UC-3 cell line [2]; JM118 0 + Gemcitabine 0.0313 μM): 57.8%; inhibition at 0.0625 µM (UM-UC-3 cell line [2]; JM118 0 + Gemcitabine 0.0625 μM): 63.3%; inhibition at 0.0015625 µM (UM-UC-3 cell line [3]; JM118 0 + Gemcitabine 0.0015625 μM): 0.2%; inhibition at 0.003125 µM (UM-UC-3 cell line [3]; JM118 0 + Gemcitabine 0.003125 μM): 1.2%; inhibition at 0.00625 µM (UM-UC-3 cell line [3]; JM118 0 + Gemcitabine 0.00625 μM): 8.3%; inhibition at 0.0125 µM (UM-UC-3 cell line [3]; JM118 0 + Gemcitabine 0.0125 μM): 41.7%; inhibition at 0.025 µM (UM-UC-3 cell line [3]; JM118 0 + Gemcitabine 0.025 μM): 87.8%; inhibition at 0.05 µM (UM-UC-3 cell line [3]; JM118 0 + Gemcitabine 0.05 μM): 103%

Question: N.N.[Cl][Pt][Cl] [Cisplatin] was tested. Which IC50 (A129) did it give?
Answer: 230 nM

Question: What about the IC50 (A129 cp80 cell line; A129 cp80, 48 hours) of the same molecule?
Answer: 15.1 µM

Question: And the “RR (relative resistance)” value (A129 cp80 cell line; A129 cp80 versus A129)?
Answer: 80 +/− 25
